# Measurements reported in ChEMBL document CHEMBL4422618, “Translational impact of novel widely pharmacological characterized mofezolac-derived COX-1 inhibitors combined with bortezomib on human multiple myeloma cell lines viability” (Eur J Med Chem, 2019).
# Experiments:
# Plasma = test: Anticoagulant activity in human platelet poor plasma assessed as prothrombin time at 100 uM incubated for 15 mins at room temperature and subsequent incubation for 2 mins at 37 degreeC followed by PBS addition and measured after 3 mins for every secs in presence of calcium thromboplastin; assay type: functional
# NCI-H929 [1] = test: Induction of apoptosis in human NCI-H929 cells assessed as necrotic cells at 42 nM after 48 hrs by Annexin-V/propidium iodide staining based flow cytometric method (reference value: 0.0034%); assay type: functional
# NCI-H929 [2] = test: Induction of apoptosis in human NCI-H929 cells assessed as early apoptotic cells at 42 nM after 48 hrs by Annexin-V/propidium iodide staining based flow cytometric method (reference value: 17.1%); assay type: functional
# [3] = target: T1, Prostaglandin G/H synthase 2 (Homo sapiens, UniProt P35354); test: Inhibition of human COX2 using arachidonic acid as substrate by colorimetric assay
# T1 sequence (P35354 whole entry): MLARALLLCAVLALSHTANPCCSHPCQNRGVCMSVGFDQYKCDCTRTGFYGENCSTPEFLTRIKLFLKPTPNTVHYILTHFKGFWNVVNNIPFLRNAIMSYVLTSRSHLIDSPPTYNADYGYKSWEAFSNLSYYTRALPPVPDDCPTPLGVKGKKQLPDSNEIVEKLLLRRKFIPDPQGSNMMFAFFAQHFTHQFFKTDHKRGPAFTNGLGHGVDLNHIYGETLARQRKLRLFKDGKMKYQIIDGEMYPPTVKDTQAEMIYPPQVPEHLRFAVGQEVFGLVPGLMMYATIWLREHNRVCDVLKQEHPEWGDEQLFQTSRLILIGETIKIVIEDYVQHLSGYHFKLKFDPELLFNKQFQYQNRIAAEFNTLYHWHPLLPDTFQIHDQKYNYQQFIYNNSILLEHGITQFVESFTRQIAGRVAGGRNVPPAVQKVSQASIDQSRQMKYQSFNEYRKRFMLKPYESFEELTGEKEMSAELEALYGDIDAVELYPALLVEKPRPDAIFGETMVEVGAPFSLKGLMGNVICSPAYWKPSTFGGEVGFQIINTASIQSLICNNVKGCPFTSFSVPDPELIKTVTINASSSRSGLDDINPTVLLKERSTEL
# NCI-H929 [4] = test: Induction of apoptosis in human NCI-H929 cells assessed as viable cells at 42 nM after 48 hrs in presence of bortezomib by Annexin-V/propidium iodide staining based flow cytometric method (reference value: 82.6%); assay type: functional; settings: NCI-H929, 48 h, read-out: Activity
smiles,measurement,setting,value
C=Cc1onc(-c2ccc(OC)cc2)c1-c1ccc(OC)cc1,PT,Plasma,13.7 s
same,Activity,NCI-H929 [1],0.012%
same,Activity,NCI-H929 [2],16.9%
same,IC50,[3],> 50 µM
same,viability at 0.042 µM,NCI-H929 [4],39.2%
